In brackets after ≈: the same amount, converted by molar mass.
How the values were obtained:
Bacillus subtilis = assay: Antimicrobial activity against Bacillus subtilis NBRC 3134; format: functional
HL-60 = assay: Cytotoxicity against human HL60 cells; format: functional, cell-based

SMILES | MIC (Bacillus subtilis) | IC50 (HL-60)
C[C@@H]1Cc2c(c(O)c3c(=O)cc4oc5c(O)cc(O[C@@H]6O[C@H](CO)[C@@H](O)[C@H](O)[C@H]6O)c6c(=O)c7c8c(c56)c4c3c2O[C@@]8(O)[C@@H](C)O[C@@H]7C)[C@@H](C)O1 [VIRIDAPHIN A1 GLUCOSIDE] | 10 µg/mL (≈ 14.2 µM) | 23 µM
CCCCCC[C@H]1C(=O)O[C@H](C)[C@H](NC(=O)c2cccc(NC=O)c2O)C(=O)O[C@@H](C)[C@@H]1OC(=O)CC(C)C [ANTIMYCIN A] | – | 45 µM
